Results reported in paper PMC12652692, “Synthesis and In Vitro Anticancer Evaluation of Novel Phosphonium Derivatives of Chrysin” (International Journal of Molecular Sciences, 2025).

Assays:
non-tumor CHO cells = test: CellTiter-Glo Luminescent Cell Viability Assay; format: cell-based, Chinese hamster; conditions: 48 h; for IC50: Cricetulus griseus, non-tumor CHO cells, read-out: Estimated IC50
Experimental: (§1) Given their potent antiproliferative effects on tumor cells, two conjugates were selected for testing on non-tumor CHO cells to investigate their selectivity. […] Cell viability of non-tumor CHO cells was assessed using the CellTiter-Glo Luminescent Cell Viability Assay (Promega, Madison, WI, USA), following treatment with 3a and 3f. Stock solutions (10 mM in DMSO) were stored frozen until use. CHO cells were cultured in complete DMEM (low glucose, 1 g/L) supplemented with 10% fetal bovine serum, 1% GlutaMAX-I, 1% non-essential amino acids, and 0.1% penicillin–streptomycin. Cells were seeded into opaque 96-well plates (5000 cells/100 µL/well), with peripheral wells filled with sterile PBS to minimize edge effects. After overnight incubation (37 °C, 5% CO2), cells were treated with increasing concentrations of the compounds (10^−5, 10^−6, and 10^−7 M) diluted in complete DMEM. Untreated cells served as controls, and complete DMEM was used to determine background luminescence. DMSO controls corresponding to the solvent concentrations of each treatment condition were also included; no significant effect on cell viability was observed. After 48 h, CellTiter-Glo reagent was added, and luminescence was measured using an EnSpire AlphaLisa microplate reader (Perkin Elmer). Relative light unit (RLU) values were normalized to untreated controls (100% viability). Non-linear regression analysis was performed in GraphPad Prism 8.0.1 to estimate IC50 values by fitting sigmoidal dose–response curves (log[inhibitor] vs. normalized response, variable slope).

[1] = CellTiter-Glo Luminescent Cell Viability Assay; format: cell-based, Chinese hamster; conditions: Chinese hamster, CHO cells (non-tumor), CHO cells, 10^−6 M
Experimental: as §1

[2] = system: 60 human cancer cell lines; parameters: method as in doi:10.3311/PPch.21919, PMID 34874114; conditions: previous work ref 24, 26; cited from earlier work

Row | SMILES | cell viability (non-tumor CHO cells; CHO cells, 10^−6 M) | IC50 (non-tumor CHO cells) [nM] | viability at 48 h [1] [%] | antiproliferative effects (in words) [2]
1 | O=c1cc(-c2ccccc2)oc2cc(OCCCC[P+](c3ccccc3)(c3ccccc3)c3ccccc3)cc(O)c12 [3a] | minimally affected | 2650 | – | –
2 | COc1c(C)cc([P+](CCCCOc2cc(O)c3c(=O)cc(-c4ccccc4)oc3c2)(c2cc(C)c(OC)c(C)c2)c2cc(C)c(OC)c(C)c2)cc1C [3f] | – | 1150 | 60.2 ± 2.9 | –
3 | O=c1cc(-c2ccccc2)oc2cc(O)cc(O)c12 [compound 2, 5,7-dihydroxyflavone, reference compound] | – | – | – | does not exert remarkable antiproliferative effects
